Source: patent US11472788B2, “Benzoimidazoles as selective inhibitors of indoleamine 2,3-dioxygenases” (BEIGENE, LTD., priority 2017, dated 2022)

Key:
Recombinant IDO1 = Recombinant IDO1 (Homo sapiens (Human), UniProt P14902); test: IDO1 enzymatic assay; format: biochemical; conditions: 50 nM IDO1, 1.3 mM D-tryptophan, pH 7.5, read-out: Enzyme assay IC50
Experimental: Recombinant IDO1 was overexpressed and purified from E. coli cells with an N-terminal His tag. IDO1 enzymatic assay was carried out using a methodology similar to described in the literature (J. Biol. Chem. (1980), 255, 1339-1345). The reaction mixture contains 50 nM IDO1, 1.3 mM D-tryptophan, 5 mM L-ascorbic acid, […] methylene Blue, 0.4 mg/mL catalase and compound (or DMSO) in a buffer containing 50 mM potassium phosphate pH 7.5 and 0.1% BSA. After incubation at 24° C. for 1.5 hours, absorbance of the reaction mixture was continuously read at 321 nm to monitor the formation of N′-formylkynurenine by a FULOstar OMEGA plate reader (BMG LABTECH) for 1 hour. The enzymatic activity was determined by measuring the slope of the linear absorbance increase as a function of time. The IC50s are calculated based on remaining enzyme activity in the presence of increasing concentrations of compounds.

[1] = target: cellular IDO1 in HeLa cells (Homo sapiens (Human), UniProt P14902); test: HeLa Cell-Based IDO1 Kyn (Kynurenine) Production Assay; conditions: IFN-γ induced IDO1, 48 hours incubation, Kyn absorbance at 480 nm
In short: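 Compounds added to HeLa cells together with IFN-γ (100 ng/mL final) and 0.4 mM L-Trp, 48 h at 37 °C. Kynurenine in TCA-deproteinized supernatant measured colorimetrically with 4-(dimethylamino)benzaldehyde at 480 nm; IC50 from four-parameter logistic fit.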

Chain of cellular IDO1 in HeLa cells (P14902 whole entry): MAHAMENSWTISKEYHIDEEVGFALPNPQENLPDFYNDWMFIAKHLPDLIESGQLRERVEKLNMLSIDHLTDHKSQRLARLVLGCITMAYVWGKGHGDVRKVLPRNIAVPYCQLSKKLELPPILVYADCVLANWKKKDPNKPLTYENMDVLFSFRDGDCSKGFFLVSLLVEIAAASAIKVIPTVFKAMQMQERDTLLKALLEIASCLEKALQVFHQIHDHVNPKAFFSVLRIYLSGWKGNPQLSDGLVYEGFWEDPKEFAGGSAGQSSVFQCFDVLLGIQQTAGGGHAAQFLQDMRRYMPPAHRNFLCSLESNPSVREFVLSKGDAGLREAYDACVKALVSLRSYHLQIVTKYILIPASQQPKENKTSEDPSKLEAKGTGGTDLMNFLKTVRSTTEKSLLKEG
Chain of Recombinant IDO1 (P14902 whole entry, species assumed): as the sequence (P14902 whole entry) above

SMILES	IC50 (Recombinant IDO1)	EC50 [1]
c1ccc2nc(C3CCC(Cc4nc5ccccc5[nH]4)CC3)ccc2c1 (centres unmarked) [Example A20, 2-(4-((1H-benzo[d]imidazol-2-yl)methyl)cyclohexyl)quinoline]	> 10000 nM	89 nM
COc1ccc2[nH]c(CC3CCC(c4ccc5ccccc5n4)CC3)nc2c1 (centres unmarked) [Example A21, 2-(4-((5-methoxy-1H-benzo[d]imidazol-2-yl)methyl)cyclohexyl)quinoline]	> 10000 nM	131 nM
c1ccc(C2CCC(Cc3nc4ccccc4[nH]3)CC2)cc1 (centres unmarked) [Example A32, 2-((4-phenylcyclohexyl)methyl)-1H-benzo[d]imidazole]	8100 nM	143 nM
FC(F)(F)c1ccc2[nH]c(C[C@H]3CC[C@H](c4ccccc4)CC3)nc2c1 [Example A33a, 2-(((1r,4r)-4-phenylcyclohexyl)methyl)-5-(trifluoromethyl)-1H-benzo[d]imidazole]	> 10000 nM	> 10000 nM
FC(F)(F)c1ccc2[nH]c(C[C@H]3CC[C@@H](c4ccccc4)CC3)nc2c1 [Example A33b, 2-(((1s,4s)-4-phenylcyclohexyl)methyl)-5-(trifluoromethyl)-1H-benzo[d]imidazole]	8200 nM	8.2 nM
Clc1ccc2[nH]c(C[C@H]3CC[C@H](c4ccccc4)CC3)nc2c1 [Example A34a, 5-chloro-2-(((1r,4r)-4-phenylcyclohexyl)methyl)-1H-benzo[d]imidazole]	8000 nM	168 nM
Clc1ccc2[nH]c(C[C@H]3CC[C@@H](c4ccccc4)CC3)nc2c1 [Example A34b, 5-chloro-2-(((1s,4s)-4-phenylcyclohexyl)methyl)-1H-benzo[d]imidazole]	4800 nM	87 nM
Clc1cccc2[nH]c(C[C@H]3CC[C@@H](c4ccccc4)CC3)nc12 [Example A35, 4-chloro-2-(((1s,4s)-4-phenylcyclohexyl)methyl)-1H-benzo[d]imidazole]	> 10000 nM	107 nM
Fc1cc2nc(C[C@H]3CC[C@H](c4ccccc4)CC3)[nH]c2cc1Br [Example A37a, 6-bromo-5-fluoro-2-(((1r,4r)-4-phenylcyclohexyl)methyl)-1H-benzo[d]imidazole]	> 10000 nM	223 nM
Fc1cc2nc(C[C@H]3CC[C@@H](c4ccccc4)CC3)[nH]c2cc1Br [Example A37b, 6-bromo-5-fluoro-2-(((1s,4s)-4-phenylcyclohexyl)methyl)-1H-benzo[d]imidazole]	6900 nM	99 nM
Fc1ccc2nccc(C3CCN(CCc4nc5cc(Cl)ccc5[nH]4)CC3)c2c1 [Example A38, 4-(1-(2-(5-chloro-1H-benzo[d]imidazol-2-yl)ethyl)piperidin-4-yl)-6-fluoroquinoline]	> 10000 nM	143 nM
Clc1ccc2[nH]c(CC3CCN(c4ccnc5ccccc45)CC3)nc2c1 [Example A40, 4-(4-((5-chloro-1H-benzo[d]imidazol-2-yl)methyl)piperidin-1-yl)quinoline]	> 10000 nM	852 nM
Fc1ccc2nccc(N3CCC(Cc4nc5cc(Cl)ccc5[nH]4)CC3)c2c1 [Example A41, 4-(4-((5-chloro-1H-benzo[d]imidazol-2-yl)methyl)piperidin-1-yl)-6-fluoroquinoline]	> 10000 nM	481 nM

Further lines, results first:

IC50 (Recombinant IDO1)	EC50 [1]	SMILES
> 10000 nM	8.2 nM	Clc1ccc2[nH]c(CC3CCC(c4cnc5ccccc5c4)CC3)nc2c1 (centres unmarked) [Example A19, 3-(4-((5-chloro-1H-benzo[d]imidazol-2-yl)methyl)cyclohexyl)quinoline]
> 10 nM	148 nM	Clc1ccc2[nH]c(CC3CCC(c4cccc5ncccc45)CC3)nc2c1 (centres unmarked) [Example A22, 5-(4-((5-chloro-1H-benzo[d]imidazol-2-yl)methyl)cyclohexyl)quinoline]
> 10000 nM	56 nM	Clc1ccc2[nH]c(C[C@H]3CC[C@H](c4ccc5ncccc5c4)CC3)nc2c1 [Example A23a, 6-((1r,4r)-4-((5-chloro-1H-benzo[d]imidazol-2-yl)methyl)cyclohexyl)quinoline]
3250 nM	24 nM	Clc1ccc2[nH]c(C[C@H]3CC[C@@H](c4ccc5ncccc5c4)CC3)nc2c1 [Example A23b, 6-((1s,4s)-4-((5-chloro-1H-benzo[d]imidazol-2-yl)methyl)cyclohexyl)quinoline]
> 10000 nM	44 nM	Fc1ccc([C@H]2CC[C@H](Cc3nc4cc(Cl)ccc4[nH]3)CC2)cc1 [Example A30a, 5-chloro-2-(((1r,4r)-4-(4-fluorophenyl)cyclohexyl)methyl)-1H-benzo[d]imidazole]
> 10000 nM	39 nM	Fc1ccc([C@H]2CC[C@@H](Cc3nc4cc(Cl)ccc4[nH]3)CC2)cc1 [Example A30b, 5-chloro-2-(((1s,4s)-4-(4-fluorophenyl)cyclohexyl)methyl)-1H-benzo[d]imidazole]
